Measurements as given in patent US20230265151A1, “GIP/GLP1 CO-AGONIST COMPOUNDS” (priority 2020, published 2023).
Like-named read-outs stand apart in the source and are kept apart here.

Experiments:
hGCGR = molecular target: T1, hGCGR (Homo sapiens, UniProt P47871); test: Functional cAMP formation (HTRF) in HEK-293 clonal cells expressing hGCGR, 0.1% bovine casein, without or with 1.0% human serum albumin; format: cell-based; settings: hGCGR EC50, nM (SEM, n), cAMP, 37° C.
T1 construct: expressed in transfected cells
Method in brief: (§1)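 Readings of the HTRF 665/620 nm ratio, which falls as cAMP rises, were converted to nM cAMP using a standard curve after 30 min peptide exposure at 37° C.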

hGLP-1R = hGLP-1R (Homo sapiens, UniProt P43220); test: Functional cAMP formation (HTRF) in HEK-293 clonal cells expressing hGLP-1R, 0.1% bovine casein, without or with 1.0% human serum albumin; format: cell-based; set-up: expressed in transfected cells; settings: for Emax: percent of maximal response to GLP-1(7-36)NH2; for EC50: hGLP-1R EC50, nM (SEM, n), cAMP, 37° C., 0.1% bovine casein (no human serum albumin), geometric mean
Method in brief: as §1

[1] = molecular target: T2, human GLP-1 receptor (hGLP-1R) (Homo sapiens, UniProt P43220); test: [125I]-GLP-1 binding, SPA with membranes of HEK293 cells expressing hGLP-1R
T2 construct: expressed in transfected cells; crude membranes

hGIPR = molecular target: T3, hGIPR (Homo sapiens, UniProt P48546); test: Functional cAMP formation (HTRF) in HEK-293 clonal cells expressing hGIPR, 0.1% bovine casein, without or with 1.0% human serum albumin; format: cell-based; settings: for Emax: HEK293, read-out: hGIPR Emax, % ± SEM, cAMP, 37° C., 0.1% bovine casein and 1.0% human serum albumin, percent of maximal response to GIP(1-42)NH2; for EC50: hGIPR EC50, nM (SEM, n), cAMP, 37° C., 0.1% bovine casein (no human serum albumin), geometric mean
T3 construct: expressed in transfected cells
T3 sequence (P48546 22-466): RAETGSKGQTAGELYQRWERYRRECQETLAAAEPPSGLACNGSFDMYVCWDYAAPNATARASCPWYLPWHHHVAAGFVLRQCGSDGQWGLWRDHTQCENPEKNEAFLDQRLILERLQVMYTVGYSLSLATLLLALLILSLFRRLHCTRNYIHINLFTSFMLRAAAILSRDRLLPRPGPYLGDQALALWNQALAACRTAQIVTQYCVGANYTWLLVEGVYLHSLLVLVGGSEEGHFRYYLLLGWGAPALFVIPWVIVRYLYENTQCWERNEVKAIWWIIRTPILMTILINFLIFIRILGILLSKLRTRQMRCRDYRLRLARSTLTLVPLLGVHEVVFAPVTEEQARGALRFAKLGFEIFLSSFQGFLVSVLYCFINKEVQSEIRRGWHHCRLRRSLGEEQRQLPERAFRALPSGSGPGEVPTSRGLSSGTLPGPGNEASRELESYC
Method in brief: as §1

[2] = 0.1% bovine casein (no human serum albumin), geometric mean
[3] = 0.1% bovine casein and 1.0% human serum albumin, geometric mean (SEM, n)
[4] = HEK293, read-out: hGLP-1R Emax, % ± SEM, cAMP, 37° C., 0.1% bovine casein, arithmetic mean

hGLP-1R, sequence (P43220 24-463): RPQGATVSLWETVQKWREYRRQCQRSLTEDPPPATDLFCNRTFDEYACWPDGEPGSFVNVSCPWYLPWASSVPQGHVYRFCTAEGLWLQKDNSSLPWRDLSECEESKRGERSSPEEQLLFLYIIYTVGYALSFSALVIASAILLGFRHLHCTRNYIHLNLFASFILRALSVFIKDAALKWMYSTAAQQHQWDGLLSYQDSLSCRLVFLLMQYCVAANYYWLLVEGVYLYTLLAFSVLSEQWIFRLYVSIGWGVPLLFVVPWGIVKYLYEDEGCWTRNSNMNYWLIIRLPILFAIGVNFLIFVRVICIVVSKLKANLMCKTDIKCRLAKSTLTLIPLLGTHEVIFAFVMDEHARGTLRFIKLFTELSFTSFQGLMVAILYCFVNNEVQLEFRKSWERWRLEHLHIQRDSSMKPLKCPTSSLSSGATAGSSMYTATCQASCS
T1 sequence (P47871 26-477): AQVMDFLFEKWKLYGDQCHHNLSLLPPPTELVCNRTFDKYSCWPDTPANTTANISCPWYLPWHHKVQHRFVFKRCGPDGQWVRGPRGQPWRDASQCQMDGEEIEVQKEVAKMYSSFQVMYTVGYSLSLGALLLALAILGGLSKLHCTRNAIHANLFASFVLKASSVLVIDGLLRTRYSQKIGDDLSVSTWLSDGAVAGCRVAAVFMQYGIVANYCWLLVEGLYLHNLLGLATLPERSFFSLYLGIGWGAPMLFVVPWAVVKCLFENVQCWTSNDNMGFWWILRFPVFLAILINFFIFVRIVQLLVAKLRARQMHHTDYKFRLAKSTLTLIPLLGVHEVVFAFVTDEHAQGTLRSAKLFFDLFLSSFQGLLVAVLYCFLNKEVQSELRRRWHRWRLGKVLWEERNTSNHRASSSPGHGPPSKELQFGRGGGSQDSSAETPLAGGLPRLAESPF
T2 sequence (P43220 24-463): as the sequence (P43220 24-463) above

Row | Compound | EC50 (hGCGR; [2]) [nM] | EC50 (hGCGR; [3]) [nM] | Emax (hGLP-1R; HEK293, read-out: hGLP-1R Emax, % ± SEM, cAMP, 37° C., 0.1% bovine casein and 1.0% human serum albumin) [%] | Emax (hGLP-1R; [4]) [%] | EC50 (hGLP-1R) [nM] | Ki [1] [nM] | Emax (hGIPR) [%] | EC50 (hGIPR) [nM]
1 | CC[C@H](C)[C@H](NC(=O)[C@H](CC(C)C)NC(=O)[C@](C)(Cc1ccc(O)cc1)NC(=O)[C@H](CCCCNC(=O)COCCOCCNC(=O)[C@H]1CC[C@H](CNC(=O)CC[C@H](NC(=O)CCCCCCCCCOc2ccc(C(=O)O)cc2)C(=O)O)CC1)NC(=O)[C@@H](NC(=O)[C@H](Cc1ccccc1)NC(=O)[C@H](CCCN)NC(=O)C(C)(C)NC(=O)[C@H](CCC(N)=O)NC(=O)[C@H](C)NC(=O)[C@H](CCC(N)=O)NC(=O)[C@H](CCCN)NC(=O)[C@H](CC(=O)O)NC(=O)[C@H](CC(C)C)NC(=O)[C@](C)(CC(C)C)NC(=O)[C@@H](NC(=O)C(C)(C)NC(=O)[C@H](Cc1ccncc1)NC(=O)[C@H](CC(=O)O)NC(=O)[C@H](CO)NC(=O)[C@@H](NC(=O)[C@](C)(Cc1ccccc1F)NC(=O)[C@@H](NC(=O)CNC(=O)[C@H](CCC(=O)O)NC(=O)C(C)(C)NC(=O)[C@@H](N)Cc1ccc(O)cc1)[C@@H](C)O)[C@@H](C)O)[C@@H](C)CC)[C@@H](C)CC)C(=O)N[C@@H](CCCCNC(=O)COCCOCCNC(=O)[C@H]1CC[C@H](CNC(=O)CC[C@H](NC(=O)CCCCCCCCCOc2ccc(C(=O)O)cc2)C(=O)O)CC1)C(=O)NCC(=O)NCC(=O)N1CCC[C@H]1C(=O)N[C@@H](CO)C(=O)N[C@@H](CO)C(=O)NCC(=O)N[C@@H](C)C(=O)N1CCC[C@H]1C(=O)N1CCC[C@H]1C(=O)N1CCC[C@H]1C(=O)N[C@@H](CO)C(N)=O [Example 473] | > 9950 | > 9950 | 114 | 118 | 0.192 | 0.169 | 92.8 | 0.0163
2 | CC[C@H](C)[C@H](NC(=O)[C@H](CC(C)C)NC(=O)[C@](C)(Cc1ccc(O)cc1)NC(=O)[C@H](CCCCNC(=O)COCCOCCNC(=O)CC[C@H](NC(=O)COCCOCCNC(=O)CC[C@H](NC(=O)CCCCCCCCCOc1ccc(C(=O)O)cc1)C(=O)O)C(=O)O)NC(=O)[C@@H](NC(=O)[C@H](Cc1ccccc1)NC(=O)[C@H](CCCN)NC(=O)C(C)(C)NC(=O)[C@H](CCC(N)=O)NC(=O)[C@H](C)NC(=O)[C@H](CCC(N)=O)NC(=O)[C@H](CCCN)NC(=O)[C@H](CC(=O)O)NC(=O)[C@H](CC(C)C)NC(=O)[C@](C)(CC(C)C)NC(=O)[C@@H](NC(=O)C(C)(C)NC(=O)[C@H](Cc1ccncc1)NC(=O)[C@H](CC(=O)O)NC(=O)[C@H](CO)NC(=O)[C@@H](NC(=O)[C@](C)(Cc1ccccc1F)NC(=O)[C@@H](NC(=O)CNC(=O)[C@H](CCC(=O)O)NC(=O)C(C)(C)NC(=O)[C@@H](N)Cc1ccc(O)cc1)[C@@H](C)O)[C@@H](C)O)[C@@H](C)CC)[C@@H](C)CC)C(=O)N[C@@H](CCCCNC(=O)COCCOCCNC(=O)CC[C@H](NC(=O)COCCOCCNC(=O)CC[C@H](NC(=O)CCCCCCCCCOc1ccc(C(=O)O)cc1)C(=O)O)C(=O)O)C(=O)NCC(=O)NCC(=O)N1CCC[C@H]1C(=O)N[C@@H](CO)C(=O)N[C@@H](CO)C(=O)NCC(=O)N[C@@H](C)C(=O)N1CCC[C@H]1C(=O)N1CCC[C@H]1C(=O)N1CCC[C@H]1C(=O)N[C@@H](CO)C(N)=O [Example 485] | > 10100 | > 9950 |  | 115 | 0.153 | 0.3 | 93.8 | 0.0113
